Reference: PubChem BioAssay (NCI)
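Values below derive from 48-hour exposures of cells grown in 96-well plates, with endpoints linearly interpolated between the two concentrations bracketing the appropriate inhibition level. GI50: concentration for 50% inhibition of growth. TGI marks complete inhibition of growth.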

Experiments:
Assay in all cases: NCI anticancer screen, dose series, 48 h
CCRF-CEM leukemia = test system: CCRF-CEM leukemia
SR leukemia = test system: SR leukemia
UO-31 renal = test system: UO-31 renal
SK-MEL-2 melanoma = test system: SK-MEL-2 melanoma
T-47D breast = test system: T-47D breast
786-0 renal = test system: 786-0 renal
NCI-H460 lung = test system: NCI-H460 lung
EKVX NSCLC = test system: EKVX NSCLC
RXF 393 renal = test system: RXF 393 renal
DU-145 prostate = test system: DU-145 prostate

SMILES | GI50 (CCRF-CEM leukemia) [µM] | TGI (CCRF-CEM leukemia) [µM] | GI50 (SR leukemia) [µM] | TGI (SR leukemia) [µM] | GI50 (UO-31 renal) [µM] | TGI (UO-31 renal) [µM] | GI50 (SK-MEL-2 melanoma) [µM] | TGI (SK-MEL-2 melanoma) [µM] | GI50 (T-47D breast) [µM] | TGI (T-47D breast) [µM] | GI50 (786-0 renal) [µM] | TGI (786-0 renal) [µM] | GI50 (NCI-H460 lung) [µM] | TGI (NCI-H460 lung) [µM] | GI50 (EKVX NSCLC) [µM] | TGI (EKVX NSCLC) [µM] | TGI (RXF 393 renal) [µM] | TGI (DU-145 prostate) [µM] | GI50 (DU-145 prostate) [µM] | GI50 (RXF 393 renal) [µM]
COc1ccc(-n2cc(-c3cc(OC)c(OC)c(OC)c3)[nH]c2=O)cc1Cl | > 100 | > 100 | 55.4 | > 100 | > 100 | > 100 | > 100 | > 100 | > 100 | > 100 | 27.7 | > 100 | > 100 | > 100 | > 100 | > 100 |  |  |  | 
c1cc2c(ncc3cscc32)s1 |  | > 100 |  | > 100 |  | > 100 |  | > 100 |  |  |  | > 100 |  | > 100 |  | > 100 | > 100 | > 100 |  | 
Cc1[nH]c2ccccc2c1C1Cc2ccccc2N1C(=O)/C(Cl)=C/c1ccccc1 (stereo not given) |  | > 100 |  | > 100 |  | > 100 |  | > 100 |  |  |  | > 100 |  | > 100 |  | > 100 | 89 |  |  | 
N#CCc1ccc(C(C#N)/C(CCCC(=O)Nc2cccc([N+](=O)[O-])c2)=N/NC(N)=S)cc1 (stereo not given) |  | > 100 |  | > 100 |  | > 100 |  | > 100 |  |  |  | > 100 |  | > 100 |  | > 100 | > 100 |  |  | 
COC(C(O)c1ccc2c(c1)OCO2)P(=O)(c1ccccc1)c1ccccc1 (stereo not given) |  | > 100 |  | > 100 |  | > 100 |  | > 100 |  |  |  | > 100 |  | > 100 |  | > 100 | > 100 |  |  | 
COC(=O)C12C3C4C1C1C2C3C41NC(=O)c1csc([C@@H](C[C@H](C(C)C)N(C)C(=O)[C@@H](NC(=O)[C@H]2CCCCN2C)C2CC2)OC(C)=O)n1 (stereo not given in full) | 0.00732 | > 33.3 | < 0.00333 | > 33.3 | 0.35 | > 33.3 | 0.11 | > 33.3 |  |  | 0.088 | > 33.3 | 0.0489 | > 33.3 | 0.08 | > 33.3 |  | > 33.3 | 0.00671 | 
COC(=O)C(=O)C(C(=O)C=C(C)C)C(=O)C(=O)Nc1ccc(C)cc1C (stereo not given) |  | > 100 |  | > 100 |  | > 100 |  | > 100 |  |  |  | > 100 |  | > 100 |  | > 100 | > 100 |  |  | 
CCCS(=O)(=O)/C(=C(\c1ccc(Br)cc1)S(=O)(=O)CCC)c1ccc(Br)cc1 |  | > 10 |  | > 10 |  | > 10 |  | > 10 |  |  |  | > 10 |  | > 10 |  | > 10 | > 10 |  |  | 
CC(C)c1cc2c(O)c(c1)Cc1cc(C(C)C)cc(c1O)Cc1cc(C(C)C)cc(c1O)Cc1cc(C(C)C)cc(c1O)C2 |  | > 100 |  | > 100 |  | > 100 |  | > 100 |  |  |  | > 100 |  | > 100 |  | > 100 | > 100 |  |  | 
C=C1C(=O)O[C@H]2[C@H]1CC/C(COC(=O)c1cc3ccccc3s1)=C\CC[C@@]1(C)O[C@@H]21 | 0.403 | 2.45 | 0.52 | 4.54 | 1.4 | 2.79 | 1.75 | 3.52 |  |  | 1.52 | 3.44 | 2.2 | 5.55 | 1.69 | 3.19 | 2.66 | 2.3 | 1.05 | 1.23
CNc1nc(N)c(N=O)c(Nc2ccc(Br)cc2)n1 |  | > 100 |  | > 100 |  | > 100 |  | > 100 |  |  |  | > 100 |  | > 100 |  | > 100 | > 100 | > 100 |  | 
COC(=O)c1cc(C)c(C)c2c1NC(=O)CNC2=O |  | > 100 |  | > 100 |  | 91.6 |  | > 100 |  |  |  | > 100 |  | > 100 |  | > 100 | > 100 |  |  | 
N#C/C(=C\c1cc2ccccc2c2ccccc12)c1ccccc1 |  | 36.2 |  | 7.91 |  | 57.7 |  | 15.4 |  |  |  | 18 |  | > 36.1 |  | 75.2 | 18.6 |  |  | 
CC[C@H](C)[C@H]1O[C@]2(C=C[C@@H]1C)C[C@@H]1C[C@@H](C/C=C(\C)[C@@H](O[C@H]3C[C@H](OC)[C@@H](O[C@H]4C[C@H](OC)[C@@H](NC)[C@H](C)O4)[C@H](C)O3)[C@@H](C)/C=C/C=C3\CO[C@@H]4[C@H](O)C(C)=C[C@@H](C(=O)O1)[C@]34O)O2 | 1.87 | 4.02 | 1.49 | 4.17 | 1.69 | 4.13 | 2.54 | 7.07 | 4.4 | 16.8 | 1.26 | 2.94 | 1.84 | 3.63 | 2.13 | 6.51 | 4.47 |  |  | 2.03
